Measured values: US4990499A, “Anti-herpes simplex virus activity of 5-alkoxymethyl-2'-deoxycytidimes and their 5-monophosphates” (priority 1989, dated 1991)

Experiments:
[1] = Survival and viability of Vero cells; conditions: monkey, vero cells
Description: (§2) The survival and viability of Vero cells grown in the presence of 2'-deoxyguanosine, H4 dUrd and deoxyguanosine+H4 dUrd was determined.

Vero cells = experiment: Survival and viability of Vero cells; conditions: up to 250 μM, rapidly dividing Vero cells
Description: as §2

[2] = tested on: Deoxynucleoside Triphosphate (dNTP) Pools in Vero Cells Infected with Herpes Simplex Virus Type 1; experiment: Deoxynucleoside triphosphate (dNTP) pools in HSV-1 infected Vero cells; assay type: cell-based; conditions: Table 10, HSV-infected
Description: Example 9 was repeated, except that the Vero cells subjected to the treatment had all been infected with HSV-1 KOS strain prior to the treatment.
^a Cells were infected with 10 PFU/cell of HSV1 KOS strain for one
hour. Treatments were given for seven hours.
^a Cells were infected with 10 PFU/cell of HSV1, KOS strain after
^b H4 dUrd in MEM was added immediately after adsorption and
^c H4 dUrd in MEM was added immediately after adsorption and
(§1) Vero cells and HSV-infected Vero cells were treated with dGUO and dGUO and H4 dUrd. The cells were then assayed for the presence of deoxynucleoside triphosphates. Untreated Vero cells were also assayed for the presence of deoxynucleoside triphophate to provide a control.
^c Cells were infected with 10 PFU/cell of HSV1 strain KOS for one

[3] = tested on: Herpes simplex virus type 1 (HSV-1); experiment: Antiviral activity against HSV-1, viral plaque reduction (ED50); assay type: cell-based; conditions: FIG. 13; deoxyguanosine with MMdCyd
Description: Infected cells were treated with different concentrations of MMdCyd and the concentration required to reduce viral plaque formation by 50%, i.e. ED50, was determined.
^a ED50 : Concentration required to reduce viral plaque formatio
Vero cells were infected with the KOS strain of HSV-1. The compound of compounds indicated in Table 2, below, and are shown graphically in FIGS. 1, (H4 dUrd) and 2 (H4 Urd).
^a Antiviral assays were carried out using Vero cells. All compounds
were added immediately after virus infection.
The antiviral activity of MMdCyd in the presence of H4 dUrd was determined against several strains of HSV-1 and HSV-2.
Vero cells were infected with HSV-1, strain 76 and treated with MMdCyd at different times post virus infection.
The antiviral activity, ^a cyctotoxicity* and antiviral indices of MMdCyd in the presence of H4 dUrd, dGuo and H4 dUrd+dGuo were determined.
^a Antiviral assays were carried out using Vero cells. Compounds were
added immediately after virus infection. Virus HSV1, strains KOS and 76;
KOS, virus input = 50 PFU

[4] = tested on: Herpes simplex virus type 1 (HSV-1); experiment: as above; assay type: cell-based; conditions: FIG. 13; HSV-1 KOS and 76, Vero, 20 PFU
[5] = tested on: Deoxynucleoside Triphosphate (dNTP) Pools in Uninfected Vero Cells; experiment: Deoxynucleoside triphosphate (dNTP) pools in uninfected (mock-infected) Vero cells; assay type: cell-based; conditions: Table 10, uninfected
Description: Vero cells were treated with MMdCyd, H4 dUrd and MMdCyd+H4 dUrd. The cells were then assayed for the presence of deoxynucleoside triphosphates. Untreated Vero cells were also assayed for the presence of deoxynucleoside triphosphates, to provide a control.
^a Cells were mock infected for one hour. Different treatments were
^b Values are means of at least two assays of triplicate cell
as §1
Vero cells were treated with N-methyl-MMdCyd. The cells were then assayed for dNTP pools.

Nc1nc2c(ncn2[C@H]2C[C@H](O)[C@@H](CO)O2)c(=O)[nH]1 [dGuo, 2'-deoxyguanosine]
viability at 25 µM [1]: 100%
viability at 50 µM [1]: 100%
viability at 100 µM [1]: 100%
viability at 250 µM [1]: 100%
viability at 500 µM [1]: 88%
viability at 1000 µM [1]: 63%
cytotoxicity (Vero cells): devoid of cytotoxicity
dATP pool ([2]; dGUO 25 μM): 12 .rho.moles/10^6 cells
dCTP pool ([2]; dGUO 25 μM): 23 .rho.moles/10^6 cells
dGTP pool ([2]; dGUO 25 μM): 290 .rho.moles/10^6 cells
dTTP pool ([2]; dGUO 25 μM): 110 .rho.moles/10^6 cells
dATP pool ([2]; dGUO 50 μM): 12 .rho.moles/10^6 cells
dCTP pool ([2]; dGUO 50 μM): 33 .rho.moles/10^6 cells
dGTP pool ([2]; dGUO 50 μM): 373 .rho.moles/10^6 cells
dTTP pool ([2]; dGUO 50 μM): 118 .rho.moles/10^6 cells
dATP pool ([2]; dGUO 100 μM): 12 .rho.moles/10^6 cells
dCTP pool ([2]; dGUO 100 μM): 64 .rho.moles/10^6 cells
dGTP pool ([2]; dGUO 100 μM): 600 .rho.moles/10^6 cells
dTTP pool ([2]; dGUO 100 μM): 214 .rho.moles/10^6 cells
dATP pool ([2]; dGUO 250 μM): 14 .rho.moles/10^6 cells
dCTP pool ([2]; dGUO 250 μM): 78 .rho.moles/10^6 cells
dGTP pool ([2]; dGUO 250 μM): 558 .rho.moles/10^6 cells
dTTP pool ([2]; dGUO 250 μM): 233 .rho.moles/10^6 cells
dATP pool ([2]; dGUO 500 μM): 25 .rho.moles/10^6 cells
dCTP pool ([2]; dGUO 500 μM): 60 .rho.moles/10^6 cells
dGTP pool ([2]; dGUO 500 μM): 738 .rho.moles/10^6 cells
dTTP pool ([2]; dGUO 500 μM): 247 .rho.moles/10^6 cells
concentration giving maximal increase in antiherpes activity of MMdCyd [3]: 100 µM
effect on antiviral activity of MMdCyd [4]: markedly potentiated
dATP pool ([5]; dGUO 25 μM): 18 .rho.moles/10^6 cells
dCTP pool ([5]; dGUO 25 μM): 13 .rho.moles/10^6 cells
dGTP pool ([5]; dGUO 25 μM): 42 .rho.moles/10^6 cells
dTTP pool ([5]; dGUO 25 μM): 17 .rho.moles/10^6 cells
dATP pool ([5]; dGUO 50 μM): 19 .rho.moles/10^6 cells
dCTP pool ([5]; dGUO 50 μM): 9 .rho.moles/10^6 cells
dGTP pool ([5]; dGUO 50 μM): 88 .rho.moles/10^6 cells
dTTP pool ([5]; dGUO 50 μM): 10 .rho.moles/10^6 cells
dATP pool ([5]; dGUO 100 μM): 19 .rho.moles/10^6 cells
dCTP pool ([5]; dGUO 100 μM): 11 .rho.moles/10^6 cells
dGTP pool ([5]; dGUO 100 μM): 76 .rho.moles/10^6 cells
dTTP pool ([5]; dGUO 100 μM): 13 .rho.moles/10^6 cells
dATP pool ([5]; dGUO 250 μM): 29 .rho.moles/10^6 cells
dCTP pool ([5]; dGUO 250 μM): 8 .rho.moles/10^6 cells
dGTP pool ([5]; dGUO 250 μM): 102 .rho.moles/10^6 cells
dTTP pool ([5]; dGUO 250 μM): 13 .rho.moles/10^6 cells
dATP pool ([5]; dGUO 500 μM): 19 .rho.moles/10^6 cells
dCTP pool ([5]; dGUO 500 μM): 7 .rho.moles/10^6 cells
dGTP pool ([5]; dGUO 500 μM): 146 .rho.moles/10^6 cells
dTTP pool ([5]; dGUO 500 μM): 6 .rho.moles/10^6 cells
